# Target: T1, hPTP1B (Homo sapiens, UniProt P18031)
# T1 construct: The catalytic structural domain of hPTP1B was expressed in E-coli system by a molecular biology protocol; made in house; host or cells: E. coli
# T1 sequence (P18031 3-277 limits assumed): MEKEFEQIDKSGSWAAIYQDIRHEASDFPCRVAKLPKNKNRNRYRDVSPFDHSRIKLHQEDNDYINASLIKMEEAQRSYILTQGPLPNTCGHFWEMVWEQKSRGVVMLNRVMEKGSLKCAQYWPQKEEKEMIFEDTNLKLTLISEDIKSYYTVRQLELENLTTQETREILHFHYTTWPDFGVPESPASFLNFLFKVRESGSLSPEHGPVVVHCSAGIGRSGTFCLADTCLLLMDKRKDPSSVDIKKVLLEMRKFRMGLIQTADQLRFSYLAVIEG
# Test: PTP1B inhibition test (pNPP hydrolysis, absorption at 410 nm)
# Assay type: biochemical
# Conditions: recombinant hPTP1B catalytic domain 40 nM, 2 mM pNPP, pH 7.0, 2% DMSO; read-out: IC50(μM), inhibitory activity of the test compounds against PTP1B
# From the text: 1) Test principle: The catalytic structural domain of hPTP1B was expressed in E-coli system by a molecular biology protocol. The purified hPTP1B recombinant protein can hydrolyze the phosphoester linkage of the pNPP substrate to obtain a product which has a strong light absorption at 410 nm. Therefore, the variation of the enzyme activity and the inhibitory activity of a compound against the enzyme can be observed by directly monitoring the changes in the light absorption at 410 nm. A typical activity assay system is as follows: 50 mM Mops, PH 7.0, 1 mM EDTA, 2 mM DTT, 2 mM PNPP, 2% DMSO, 40 nM hPTP1B.
# 2) Measuring Index: The light absorption was dynamically measured at 410 nm for 3 min. The slope of the first-order reaction of the dynamic curve thereof was considered as the activity index of the enzymes.
# 3) Measurement: • 1. 1 mg sample was dissolved in 200 μL DMSO. To each wall of the A2-H11 of a 96-wells polypropylene plate, 20 μL of the solution was added, followed by addition of 80 μL DMSO. The plate was used as mother plate. • 2. To each corresponding wall of a 96-wells polypropylene plate, 2 μL of sample was added with a Biomek 2000 automation workstation. The plate was used as daughter plate for screening. • 3. To each wall of A1-D1 and E12-H12, 2 μL, DMSO was added. These walls were regarded as 100% of enzyme activity for control. • 4. To each wall of A12-D12 and E1-H1, 2 μL positive control with different concentrations (four concentrations prepared by double-fold dilution from […]) was added respectively. • 5. To each wall of A1-H12, 88 μL Assay mix was added respectively. • 6. To each wall of A1-H12, 10 μL hPTP1B was added respectively. • 7. The light absorption was measured at 410 nm for 3 min on a SpectraMAX 340 spectrometer. • 8. Exporting the output into a TXT file, and opening the file with Excel. The average of the Vmax values of A1-D1 and E12-H12 was considered as 100% of enzyme activity.
# 4) Results: The screening results were the % inhibitory rate against the enzyme when the compound concentration was 20 μg/mL. 1050 value was calculated according to a conventional screening when the inhibitory rate exceeded 50%. The […] value of the positive control, 4-[4-(4-oxalyl-phenoxymethyl)-benzyloxy]-phenyl-oxo-acetic acid, is 5.4 μM [Christopher T. Seto, et al. J. Med. Chem., 2002, 45, 3946-3952].
row,SMILES,IC50
1,CCOC(=O)/C(C)=C\C(C)=C\c1nc([C@H](Cc2ccc(OCc3ccccc3)cc2)NC(=O)C2CCCCC2)sc1CC(C)C [WY628z],6.68 µM
2,C/C(=C/C(C)=C/c1nc([C@H](Cc2ccc(OCc3ccccc3)cc2)NC(=O)C2CCCCC2)sc1-c1ccccc1)C(=O)O [WY620a],4 µM
3,CCOC(=O)/C(C)=C\C(C)=C\c1csc([C@H](Cc2ccccc2)NC(=O)C2CCCCC2)n1 [WY466h],34.2 µM
4,CCOC(=O)/C(C)=C\C(C)=C\c1csc([C@H](Cc2ccc(OCc3ccccc3)cc2)NC(=O)C2CCCO2)n1 (stereo partly drawn) [WY560s],> 40 µM
5,CCOC(=O)/C(C)=C\C(C)=C\c1csc([C@H](Cc2ccc(OCc3ccccc3)cc2)NC(=O)CC(C)(C)C)n1 [WY560t],20.2 µM
6,CCOC(=O)/C(C)=C\C(C)=C\c1csc([C@H](Cc2ccc(OCc3ccccc3)cc2)NC(=O)C(=O)CO)n1 [WY548],> 35 µM
7,CCOC(=O)/C(C)=C\C(C)=C\c1csc([C@H](Cc2ccc(OCc3ccccc3)cc2)NC(=O)N2CCC(C(=O)O)CC2)n1 [WY617a],6.47 µM
8,CCOC(=O)/C(C)=C\C(C)=C\c1csc([C@H](Cc2ccc(OCc3ccccc3)cc2)NC(=O)c2ccco2)n1 [WY556s],> 40 µM
9,CCOC(=O)/C(C)=C\C(C)=C\c1csc([C@H](Cc2ccc(OCc3ccccc3)cc2)NC(=O)C(=O)C2CC2)n1 [WY558],8.14 µM
10,CCOC(=O)/C(C)=C\C(C)=C\c1csc([C@H](Cc2ccc(OCc3ccccc3)cc2)NC(=O)C(=O)c2ccc[nH]2)n1 [WY583],> 35 µM
11,CCOC(=O)/C(C)=C\C(C)=C\c1csc([C@H](Cc2ccc(OCc3ccccc3)cc2)NC(=O)C(F)(F)F)n1 [WY558f],> 35 µM
12,CCOC(=O)/C(C)=C\C(C)=C\c1csc([C@H](Cc2ccc(OCc3ccccc3)cc2)NC(=O)C(=O)c2cccs2)n1 [WY600t],10.9 µM
13,CCOC(=O)/C(C)=C\C(C)=C\c1csc([C@H](Cc2ccc(OCc3ccccc3)cc2)NC(=O)C2CCN(C)CC2)n1 [WY587s],> 35 µM
14,C=CCc1cc(C[C@H](NC(=O)C2CCCCC2)c2nc(/C=C(C)/C=C(/C)C(=O)OCC)cs2)ccc1O [WY522b],> 40 µM
15,CCOC(=O)/C(C)=C\C(C)=C\c1nc([C@H](Cc2ccc(OCc3ccccc3)cc2)NC(=O)C2CCCCC2)sc1C [WY586z],4.86 µM
16,CCOC(=O)COc1ccc(C[C@H](NC(=O)C2CCCCC2)c2nc(/C=C(C)/C=C(/C)C(=O)OCC)cs2)cc1 [WY568h],> 40 µM
17,CCOC(=O)/C(C)=C\C(C)=C\c1nc([C@@H](Cc2ccc(OCc3ccccc3)cc2)NC(=O)C2CCCCC2)sc1CC(C)C [WY628z2],10.5 µM

row,SMILES,IC50
1,CCOC(=O)/C(C)=C\C(C)=C\c1csc([C@H](Cc2ccc(OCc3ccccc3)cc2)NC(=O)N[C@@H](Cc2ccc(OCc3ccccc3)cc2)c2nc(/C=C(C)/C=C(/C)C(=O)OCC)cs2)n1 [WY951],6.29 µM
2,COC(=O)/C(C)=C\C(C)=C\c1csc([C@H](Cc2ccc(OCc3ccccc3)cc2)NC(=O)C(O)c2ccccc2)n1 (stereo partly drawn) [WY584],> 35 µM
3,CCOC(=O)/C(C)=C\C(C)=C\c1csc([C@H](Cc2ccc(OCC(=O)O)cc2)NC(=O)C2CCCCC2)n1 [WY540a],> 40 µM
4,CCOC(=O)/C(C)=C\C(C)=C\c1csc([C@H](Cc2ccc(OCc3ccccc3)cc2)NC(=O)C(O)C2CCCCC2)n1 (stereo partly drawn) [WY602-2],13.5 µM
5,CCOC(=O)/C(C)=C\C(C)=C\c1csc([C@H](Cc2ccc(OCc3ccccc3)cc2)NC(=O)Cc2ccccc2)n1 [WY580s],23.1 µM
6,CCOC(=O)/C(C)=C\C(C)=C\c1csc([C@H](Cc2ccc(OCc3ccccc3)cc2)NC(=O)C(=O)c2ccc(F)cc2)n1 [WY612],5.13 µM
7,CCOC(=O)/C(C)=C\C(C)=C\c1csc([C@H](Cc2ccc(OCc3ccccc3)cc2)NC(=O)C2CCCCC2=O)n1 (stereo partly drawn) [WY586d],8.44 µM
8,CCOC(=O)/C(C)=C\C(C)=C\c1csc([C@H](Cc2ccc(OCc3ccccc3)cc2)NC(=O)N2CCC(C(=O)OCC)CC2)n1 [WY645s],10.5 µM
9,CCOC(=O)/C(C)=C\C(C)=C\c1csc([C@H](Cc2ccc(OCc3ccccc3)cc2)NC(=O)C(OCc2ccccc2)C(C)C)n1 (stereo partly drawn) [WY652s],9.98 µM
10,CCOC(=O)/C(C)=C\C(C)=C\c1csc([C@H](Cc2ccc(OCc3ccccc3)cc2)NC(=O)C(=O)COC)n1 [WY562],10.2 µM
11,CCOC(=O)/C(C)=C\C(C)=C\c1csc([C@H](Cc2ccc(O)c(Cc3ccccc3)c2)NC(=O)C2CCCCC2)n1 [WY572t],4.47 µM
12,CCOC(=O)/C(C)=C\C(C)=C\c1csc([C@H](Cc2ccc(Oc3ccc([N+](=O)[O-])cc3F)cc2)NC(=O)C2CCCCC2)n1 [WY621h],> 35 µM
13,CCOC(=O)/C(C)=C\C(C)=C\c1csc([C@H](Cc2ccc(OC(C)C(=O)OCC)cc2)NC(=O)C2CCCCC2)n1 (stereo partly drawn) [WY582h],> 35 µM
14,CCOC(=O)/C(C)=C\C(C)=C\c1csc([C@H](Cc2ccc(OCc3ccccc3)cc2)NC(=O)C(=O)COCc2ccccc2)n1 [WY638],4.1 µM
15,CCCCC(=O)C(=O)N[C@@H](Cc1ccc(OCc2ccccc2)cc1)c1nc(/C=C(C)/C=C(/C)C(=O)OCC)cs1 [WY574],8.58 µM
16,CCOC(=O)/C(C)=C\C(C)=C\c1csc([C@H](Cc2ccc(OCc3ccccc3)cc2)NC(=O)COCc2ccccc2)n1 [WY610s],9.42 µM
17,CCOC(=O)/C(C)=C\C(C)=C\c1nc([C@H](Cc2ccc(OCc3ccccc3)cc2)NC(=O)C2CCCCC2)sc1-c1ccccc1 [WY648z],3.3 µM

# Continued, values first:
row,IC50,SMILES
1,> 35 µM,CCOC(=O)/C(C)=C\C(C)=C\c1csc([C@H](Cc2ccc(OCc3ccc(C#N)cc3)cc2)NC(=O)C2CCCCC2)n1 [WY597h]
2,8.69 µM,CCOC(=O)/C(C)=C/C(C)=C\c1csc([C@H](Cc2ccc(OCc3ccccc3)cc2)NC(=O)C2CCCCC2)n1 [WY572-3]
3,> 35 µM,CCOC(=O)/C(C)=C\C(C)=C\c1csc([C@H](Cc2ccc(OCCc3ccccc3)cc2)NC(=O)C2CCCCC2)n1 [WY586h]
4,11 µM,CCOC(=O)/C(C)=C\C(C)=C\c1csc([C@H](Cc2ccc(OCc3ccccc3)cc2)NC(=O)C(=O)C2CCCC2)n1 [WY586]
5,7.9 µM,CCOC(=O)/C(C)=C\C(C)=C/c1csc([C@H](Cc2ccc(OCc3ccccc3)cc2)NC(=O)C2CCCCC2)n1 [WY572-4]
6,31.8 µM,CCOC(=O)/C(C)=C\C(C)=C\c1csc([C@H](Cc2ccc(OCc3ccccc3F)cc2)NC(=O)C2CCCCC2)n1 [WY592h2]
7,12.7 µM,CCOC(=O)/C(C)=C\C(C)=C\c1csc([C@H](Cc2ccc(OCc3ccccc3)cc2)NC(=O)C2CCCC2)n1 [WY558s]
8,> 40 µM,CCOC(=O)/C(C)=C\C(C)=C\c1csc([C@H](Cc2ccc(-c3ccccc3)cc2)NC(=O)C2CCCCC2)n1 [WY542h]
9,> 40 µM,CCOC(=O)/C(C)=C\C(C)=C\c1csc([C@H](Cc2ccc(OCc3ccccc3)cc2)NC(=O)C2CCC2)n1 [WY544s]
10,> 35 µM,CCOC(=O)/C(C)=C\C(C)=C\c1csc([C@H](Cc2ccc(OCc3ccc4ccccc4c3)cc2)NC(=O)C2CCCCC2)n1 [WY622h]
11,> 35 µM,CCOC(=O)/C(C)=C\C(C)=C\c1csc([C@H](Cc2ccc(OCc3ccccn3)cc2)NC(=O)C2CCCCC2)n1 [WY573h]
12,30.1 µM,CCOC(=O)/C(C)=C\C(C)=C\c1csc([C@H](Cc2ccc(OC)cc2)NC(=O)C2CCCCC2)n1 [WY496h]
13,34.4 µM,C=CCOc1ccc(C[C@H](NC(=O)C2CCCCC2)c2nc(/C=C(C)/C=C(/C)C(=O)OCC)cs2)cc1 [WY522h]
14,6.29 µM,CCOC(=O)/C(C)=C\C(C)=C\c1csc([C@H](Cc2ccc(OCc3ccccc3)cc2)NC(=O)C2CCCCC2)n1 [WY572s]
15,25.6 µM,CCOC(=O)/C(C)=C\C(C)=C\c1csc([C@H](Cc2ccc(OCc3ccc(F)cc3)cc2)NC(=O)C2CCCCC2)n1 [WY590h]
16,24.1 µM,CCOC(=O)/C(C)=C\C(C)=C\c1csc([C@H](Cc2ccc(OCc3cccc(F)c3)cc2)NC(=O)C2CCCCC2)n1 [WY590h3]
17,12 µM,CCOC(=O)/C(C)=C\C(C)=C\c1csc([C@H](Cc2ccc(OCc3ccsc3)cc2)NC(=O)C2CCCCC2)n1 [WY578h]

# From patent publication US8183383B2, “Protein tyrosine phosphatase 1B inhibitor, preparation methods and uses thereof” (Shanghai Institute of Materia Medica, Chinese Academy of …, priority 2007, dated 2012)
